In patent US20100267743A1, “3-(PHENOXYPYRROLIDIN-3-YL-METHYL)HETEROARYL, 3-(PHENYLPYRROLIDIN-3-YLMETHOXY)HETEROARYL, AND 3-(HETEROARYLPYRROLIDIN-3-YLMETHOXY)HETEROARYL COMPOUNDS” (priority 2009, published 2010):

What was measured:
SERT = SERT (Homo sapiens, UniProt P31645); experiment: hSERT radioligand binding assay (3H-citalopram); set-up: expressed in transfected cells; host or cells: HEK-293; conditions: hSERT membranes (HEK-293), 1.0 nM 3H-citalopram; for Ki: read-out: SERT pKi (converted)
Method: (§1) Membrane radioligand binding assays were used to measure inhibition of labeled ligand (^3H-citalopram or ^3H-nisoxetine or ^3H-WIN35428) binding to membranes prepared from cells expressing the respective human recombinant transporter (hSERT or hNET or hDAT) in order to determine the pKi values of test compounds at the transporters.
(§2) Recombinant human embryonic kidney (HEK-293) derived cell lines stably transfected with hSERT or hNET, respectively, were grown in DMEM medium supplemented with 10% dialyzed FBS (for hSERT) or FBS (for hNET), 100 μg/ml penicillin, 100 μg/ml streptomycin, 2 mM L-glutamine and 250 μg/ml of the aminoglycoside antibiotic G418, in a 5% CO2 humidified incubator at 37° C. When cultures reached 80% confluence, the cells were washed thoroughly in PBS (without […] and Mg^2+) and lifted with 5 mM EDTA in PBS. Cells were pelleted by centrifugation, resuspended in lysis buffer (10 mM Tris-HCl, pH7.5 containing 1 mM EDTA), homogenized, pelleted by centrifugation, then resuspended in 50 mM Tris-HCl, pH 7.5 and 10% sucrose at 4° C. Protein concentration of the membrane suspension was determined using a Bio-Rad Bradford Protein Assay kit. Membranes were snap frozen and stored at −80° C. Chinese hamster ovary membranes expressing hDAT (CHO-DAT) were purchased from PerkinElmer and stored at −80° C.
(§3) Binding assays were performed in a 96-well assay plate in a total volume of 200 μl assay buffer (50 mM Tris-HCl, 120 mM NaCl, 5 mM KCl, pH 7.4) with 0.5, 1, and 3 μg membrane protein, for SERT, NET and DAT, respectively.
(§4) Stock solutions (10 mM in DMSO) of test compound were prepared and serial dilutions made using Dilution Buffer (50 mM Tris-HCl, 120 mM NaCl, 5 mM KCl, pH 7.4, 0.1% BSA, 400 μM ascorbic acid).
(§5) Following a 60 minute incubation at 22° C. (or a period sufficient to reach equilibrium), the membranes were harvested by rapid filtration over a 96-well UniFilter GF/B plate, pretreated with 0.3% polyethyleneimine, and washed 6 times with 300 μl wash buffer (50 mM Tris-HCl, 0.9% NaCl, pH 7.5 at 4° C.). Plates were dried overnight at room temperature, ˜45 μl of MicroScint™-20 (Perkin Elmer) added and bound radioactivity quantitated via liquid scintillation spectroscopy. Inhibition curves and saturation isotherms were analyzed using GraphPad Prism Software package (GraphPad Software, Inc., San Diego, Calif.). IC50 values were generated from concentration response curves using the Sigmoidal Dose Response (variable slope) algorithm in Prism GraphPad. Kd and Bmax values for the radioligand were generated from saturation isotherms using the Saturation Binding Global Fit algorithm in Prism GraphPad. pKi (negative decadic logarithm of Ki) values for test compounds were calculated from the best-fit IC50 values, and the Kd value of the radioligand, using the Cheng-Prusoff equation (Cheng & Prusoff (1973) Biochem. Pharmacol. 22(23):3099-3108): Ki=IC50/(1+[L]/Kd), where [L]=concentration radioligand.

NET = NET (Homo sapiens, UniProt P23975); experiment: hNET radioligand binding assay (3H-nisoxetine); set-up: expressed in transfected cells; host or cells: HEK-293; conditions: hNET membranes (HEK-293), 1.0 nM 3H-nisoxetine; for Ki: read-out: NET pKi (converted)
Method: as §1, §2, §3, §4, §5

Chain of NET (P23975 whole entry): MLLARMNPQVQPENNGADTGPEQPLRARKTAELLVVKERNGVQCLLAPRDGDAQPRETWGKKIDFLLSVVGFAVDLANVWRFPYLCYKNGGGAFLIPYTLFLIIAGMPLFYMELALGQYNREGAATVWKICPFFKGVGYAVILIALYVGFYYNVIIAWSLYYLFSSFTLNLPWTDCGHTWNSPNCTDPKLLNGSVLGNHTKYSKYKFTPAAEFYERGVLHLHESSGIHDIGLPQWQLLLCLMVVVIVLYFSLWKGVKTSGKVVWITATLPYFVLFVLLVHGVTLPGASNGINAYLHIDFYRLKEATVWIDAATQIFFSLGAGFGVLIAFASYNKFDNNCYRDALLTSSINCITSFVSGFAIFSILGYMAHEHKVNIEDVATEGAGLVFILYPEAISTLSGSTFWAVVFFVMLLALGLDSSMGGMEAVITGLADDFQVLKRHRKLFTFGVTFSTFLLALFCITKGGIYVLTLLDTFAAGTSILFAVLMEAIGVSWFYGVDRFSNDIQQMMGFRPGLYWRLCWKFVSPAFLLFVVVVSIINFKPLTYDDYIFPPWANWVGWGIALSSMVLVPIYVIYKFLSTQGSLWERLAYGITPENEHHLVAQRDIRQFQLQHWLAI
Chain of SERT (P31645 whole entry): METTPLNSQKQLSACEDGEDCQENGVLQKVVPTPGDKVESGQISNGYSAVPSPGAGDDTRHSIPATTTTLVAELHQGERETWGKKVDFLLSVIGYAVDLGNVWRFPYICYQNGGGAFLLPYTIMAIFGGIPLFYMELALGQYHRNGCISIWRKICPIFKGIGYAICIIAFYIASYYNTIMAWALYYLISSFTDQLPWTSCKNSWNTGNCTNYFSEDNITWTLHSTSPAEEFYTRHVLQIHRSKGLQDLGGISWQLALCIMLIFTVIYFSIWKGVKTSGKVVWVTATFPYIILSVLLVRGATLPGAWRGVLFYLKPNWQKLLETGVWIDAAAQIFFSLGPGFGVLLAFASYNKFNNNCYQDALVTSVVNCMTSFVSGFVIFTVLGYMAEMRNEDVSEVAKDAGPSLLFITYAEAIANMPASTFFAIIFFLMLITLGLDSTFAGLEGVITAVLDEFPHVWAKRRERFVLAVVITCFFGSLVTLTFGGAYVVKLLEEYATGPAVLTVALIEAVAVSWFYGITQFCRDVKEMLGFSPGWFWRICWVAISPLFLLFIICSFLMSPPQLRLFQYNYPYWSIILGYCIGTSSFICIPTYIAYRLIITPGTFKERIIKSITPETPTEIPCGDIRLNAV

| Compound | SERT pKi (SERT) | NET pKi (NET) | Ki (SERT) [nM] | Ki (NET) [nM] |
| --- | --- | --- | --- | --- |
| CC(=O)c1cc(F)cc(F)c1O[C@@H](c1ncco1)[C@H]1CCNC1.O=C(O)C(F)(F)F [6-28] | ≧5.0 | ≧7.0 | – | – |
| Fc1cncc([C@H](Oc2ccc3ccccc3c2)[C@H]2CCNC2)c1.O=C(O)C(F)(F)F [20-3] | ≧7.0 | ≧7.0 | – | – |
| Fc1ccc(O[C@@H](c2ccccc2)[C@H]2CCNC2)nc1F.O=C(O)C(F)(F)F [14-5] | ≧5.0 | ≧7.0 | – | – |
| FC(F)(F)c1cnc(O[C@@H](c2ccccc2)[C@H]2CCNC2)c(Cl)c1.O=C(O)C(F)(F)F [14-25] | ≧7.0 | ≧5.0 | – | – |
| Cc1ccc(O[C@@H](c2ncco2)[C@H]2CCNC2)cc1 [6-48] | – | – | ≤ 100 | ≤ 100 |
| Fc1cc(F)c(OC(c2nccs2)C2CCNC2)c(F)c1 [Example 5-6, 2-[(R)-((S)-Pyrrolidin-3-yl-(2,4,6-trifluorophenoxy)methyl]thiazole] | – | – | ≤ 10000 | ≤ 10000 |
| Fc1cc(F)c(Cl)c(O[C@H](c2cnccn2)[C@H]2CCNC2)c1Cl [10-2] | – | – | ≤ 10000 | ≤ 10000 |
| COc1ncccc1O[C@@H](c1ccccc1)C1CCNC1 (stereo partly shown) [15-16] | – | – | ≤ 100 | ≤ 100 |
| Fc1ccc(F)c(O[C@@H](c2nccs2)[C@H]2CCNC2)c1Cl [Example 5-15] | ≧7.0 | ≧5.0 | – | – |
| Clc1ccc(O[C@@H](c2ccccc2)C2CCNC2)c(Cl)n1 (stereo partly shown) [15-1] | – | – | ≤ 100 | ≤ 100 |
| Clc1cc(Cl)cc(O[C@H](c2nccs2)[C@H]2CCNC2)c1 [Example 5-27] | ≧7.0 | ≧7.0 | – | – |
| Cc1cc(Cl)c(O[C@H](c2cncc(Cl)c2)[C@@H]2CCNC2)c(Cl)c1 [Example 2-28, 3-Chloro-5-[(R)-(2,6-dichloro-4-methylphenoxy)-(S)-pyrrolidin-3-yl-methy1]-pyridine] | ≧7.0 | ≧7.0 | – | – |
| Cc1cccc(O[C@@H](c2ccccc2)[C@H]2CCNC2)n1.O=C(O)C(F)(F)F [14-11] | ≧5.0 | ≧5.0 | – | – |
| Fc1ccc(OC(c2nccs2)C2CCNC2)c(F)c1F [Example 5-2, 2-[((S)-((S)-Pyrrolidin-3-yl-(2,3,4-trifluorophenoxy)methyl]thiazole] | ≧7.0 | – | – | ≤ 100 |
| Fc1ccc(O[C@H](c2nccs2)[C@H]2CCNC2)c(Cl)c1 [Example 5-19, 2-[(S)-(2-Chloro-4-fluorophenoxy)-(S)-pyrrolidin-3-ylmethyl]thiazole] | – | – | ≤ 100 | ≤ 10000 |
| COc1ccccc1O[C@H](c1cnccn1)[C@H]1CCNC1 [10-8] | – | – | ≤ 10000 | ≤ 10000 |
| Fc1cc(Cl)cc(F)c1OC(c1ncco1)C1CCNC1 (stereo not shown) [6-13] | ≧7.0 | ≧7.0 | – | – |
| COc1cc(Cl)c(F)cc1O[C@@H](c1ncco1)[C@H]1CCNC1.O=C(O)C(F)(F)F [6-40] | ≧7.0 | ≧7.0 | – | – |
| Fc1cc(Cl)c(O[C@H](c2cncc(Cl)c2)[C@@H]2CCNC2)c(Cl)c1 [Example 2-26, 3-Chloro-5-[(R)-(2,6-dichloro-4-fluorophenoxy)-(S)-pyrrolidin-3-yl-methy1]-pyridine] | ≧7.0 | ≧5.0 | – | – |
| FC(F)(F)c1cccnc1O[C@@H](c1ccccc1)[C@H]1CCNC1.O=C(O)C(F)(F)F [14-34] | ≧7.0 | ≧5.0 | – | – |
| Cc1cc(Cl)c(OC(c2nccs2)C2CCNC2)c(Cl)c1 [Example 5-13, 2-[(R)-(2,6-Dichloro-4-methylphenoxy)-((S)-pyrrolidin-3-yl-methyl]thiazole] | – | – | ≤ 10000 | ≤ 10000 |

| Compound | SERT pKi (SERT) | NET pKi (NET) | Ki (SERT) [nM] | Ki (NET) [nM] |
| --- | --- | --- | --- | --- |
| Fc1ncccc1O[C@@H](c1ccccc1)[C@H]1CCNC1.O=C(O)C(F)(F)F [15-8] | ≧7.0 | ≧7.0 | – | – |
| c1ccc(C(Oc2cccnc2)C2CCNC2)cc1 (stereo not shown) [15-32] | – | – | ≤ 100 | ≤ 10000 |
| Cc1cc(Cl)ccc1O[C@@H](c1cncnc1)[C@H]1CCNC1.O=C(O)C(F)(F)F [12-3] | ≧7.0 | ≧7.0 | – | – |
| Clc1ccc(O[C@@H](c2ccccc2)[C@H]2CCNC2)cn1.O=C(O)C(F)(F)F [15-24] | ≧7.0 | ≧5.0 | – | – |
| CCc1cc(F)cc(F)c1O[C@@H](c1ncco1)[C@H]1CCNC1 [6-53] | ≧7.0 | ≧7.0 | – | – |
| Clc1cccc(O[C@@H](c2ncco2)[C@H]2CCNC2)c1Cl.O=C(O)C(F)(F)F [6-49] | ≧7.0 | ≧7.0 | – | – |
| Fc1ccc(F)c(O[C@H](c2cnccn2)[C@H]2CCNC2)c1Cl [10-4] | – | – | ≤ 100 | ≤ 10000 |
| Fc1c(Cl)ccc(O[C@@H](c2ncco2)[C@H]2CCNC2)c1Cl.O=C(O)C(F)(F)F [6-4] | ≧7.0 | ≧7.0 | – | – |
| Clc1ncccc1O[C@H](c1ccccc1)[C@@H]1CCNC1.O=C(O)C(F)(F)F [15-5] | ≧7.0 | ≧7.0 | – | – |
| Fc1cc(F)c(Cl)c(O[C@@H](c2cnccn2)[C@H]2CCNC2)c1Cl.O=C(O)C(F)(F)F [10-1] | ≧7.0 | ≧7.0 | – | – |
| Clc1cc(Cl)cc(O[C@H](c2cnccn2)[C@H]2CCNC2)c1 [10-10] | – | – | ≤ 100 | ≤ 10000 |
| Cc1cccnc1OC(c1ccccc1)C1CCNC1 (stereo not shown) [14-37] | ≧5.0 | ≧5.0 | – | – |
| Cc1cccc(Cl)c1O[C@@H](c1ncco1)[C@H]1CCNC1 [6-26] | ≧7.0 | ≧7.0 | – | – |
| Fc1cncc([C@@H](Oc2c(Cl)c(F)cc(F)c2Cl)[C@H]2CCNC2)c1 [Example 2-42, 3-[(S)-(2,6-Dichloro-3,5-difluorophenoxy)-(S)-pyrrolidin-3-yl-methyl]-5-fluoropyridine] | – | – | ≤ 100 | ≤ 10000 |
| Clc1cc(Cl)cc(OC(c2nccs2)C2CCNC2)c1 [Example 5-26, 2-[(R)-(3,5-Dichlorophenoxy)-((S)-pyrrolidin-3-yl-methyl]thiazole] | – | – | ≤ 100 | ≤ 100 |
| Clc1ccccc1O[C@@H](c1ncco1)[C@H]1CCNC1 [6-19] | ≧5.0 | ≧7.0 | – | – |
| Cc1cc(Cl)ccc1O[C@H](c1cnccn1)[C@H]1CCNC1 [10-6] | – | – | ≤ 100 | ≤ 10000 |
| Fc1ccc(OC(c2nccs2)C2CCNC2)c(F)c1F [Example 5-1, 2-[(R)-((S)-Pyrrolidin-3-yl-(2,3,4-trifluorophenoxy)methyl]thiazole] | – | – | ≤ 100 | ≤ 10000 |
| Clc1ncccc1O[C@@H](c1ccccc1)C1CCNC1 (stereo partly shown) [15-4] | – | – | ≤ 100 | ≤ 100 |
| COc1ccccc1OC(c1cncnc1)C1CCNC1 (stereo not shown) [12-4] | ≧5.0 | ≧7.0 | – | – |
